Values of other authors as cited in US8591958B2, “Concentrated hydrogen peroxide disinfecting solutions” (priority 2008, dated 2013).
Where two headings read alike, the source gives them in different places.

Test system: Staphylococcus aureus

## OO [hydrogen peroxide]
0.1% w/w aqueous solution
  time required to disinfect surfaces contaminated with Staphylococcus aureus: about 60 minutes
25.8% w/w aqueous solution, same test conditions
  time required to disinfect surfaces contaminated with Staphylococcus aureus: about 20 seconds
